Biological target: T1, Cav3.2 T-type calcium channel (Homo sapiens, UniProt O95180)
T1 construct: gene CACNA1H
Assay: whole-cell patch clamp, tsA-201 cells transiently expressing Cav3.[…]; partial block (plateau about […])
Format: cell-based

T1 sequence (O95180 whole entry): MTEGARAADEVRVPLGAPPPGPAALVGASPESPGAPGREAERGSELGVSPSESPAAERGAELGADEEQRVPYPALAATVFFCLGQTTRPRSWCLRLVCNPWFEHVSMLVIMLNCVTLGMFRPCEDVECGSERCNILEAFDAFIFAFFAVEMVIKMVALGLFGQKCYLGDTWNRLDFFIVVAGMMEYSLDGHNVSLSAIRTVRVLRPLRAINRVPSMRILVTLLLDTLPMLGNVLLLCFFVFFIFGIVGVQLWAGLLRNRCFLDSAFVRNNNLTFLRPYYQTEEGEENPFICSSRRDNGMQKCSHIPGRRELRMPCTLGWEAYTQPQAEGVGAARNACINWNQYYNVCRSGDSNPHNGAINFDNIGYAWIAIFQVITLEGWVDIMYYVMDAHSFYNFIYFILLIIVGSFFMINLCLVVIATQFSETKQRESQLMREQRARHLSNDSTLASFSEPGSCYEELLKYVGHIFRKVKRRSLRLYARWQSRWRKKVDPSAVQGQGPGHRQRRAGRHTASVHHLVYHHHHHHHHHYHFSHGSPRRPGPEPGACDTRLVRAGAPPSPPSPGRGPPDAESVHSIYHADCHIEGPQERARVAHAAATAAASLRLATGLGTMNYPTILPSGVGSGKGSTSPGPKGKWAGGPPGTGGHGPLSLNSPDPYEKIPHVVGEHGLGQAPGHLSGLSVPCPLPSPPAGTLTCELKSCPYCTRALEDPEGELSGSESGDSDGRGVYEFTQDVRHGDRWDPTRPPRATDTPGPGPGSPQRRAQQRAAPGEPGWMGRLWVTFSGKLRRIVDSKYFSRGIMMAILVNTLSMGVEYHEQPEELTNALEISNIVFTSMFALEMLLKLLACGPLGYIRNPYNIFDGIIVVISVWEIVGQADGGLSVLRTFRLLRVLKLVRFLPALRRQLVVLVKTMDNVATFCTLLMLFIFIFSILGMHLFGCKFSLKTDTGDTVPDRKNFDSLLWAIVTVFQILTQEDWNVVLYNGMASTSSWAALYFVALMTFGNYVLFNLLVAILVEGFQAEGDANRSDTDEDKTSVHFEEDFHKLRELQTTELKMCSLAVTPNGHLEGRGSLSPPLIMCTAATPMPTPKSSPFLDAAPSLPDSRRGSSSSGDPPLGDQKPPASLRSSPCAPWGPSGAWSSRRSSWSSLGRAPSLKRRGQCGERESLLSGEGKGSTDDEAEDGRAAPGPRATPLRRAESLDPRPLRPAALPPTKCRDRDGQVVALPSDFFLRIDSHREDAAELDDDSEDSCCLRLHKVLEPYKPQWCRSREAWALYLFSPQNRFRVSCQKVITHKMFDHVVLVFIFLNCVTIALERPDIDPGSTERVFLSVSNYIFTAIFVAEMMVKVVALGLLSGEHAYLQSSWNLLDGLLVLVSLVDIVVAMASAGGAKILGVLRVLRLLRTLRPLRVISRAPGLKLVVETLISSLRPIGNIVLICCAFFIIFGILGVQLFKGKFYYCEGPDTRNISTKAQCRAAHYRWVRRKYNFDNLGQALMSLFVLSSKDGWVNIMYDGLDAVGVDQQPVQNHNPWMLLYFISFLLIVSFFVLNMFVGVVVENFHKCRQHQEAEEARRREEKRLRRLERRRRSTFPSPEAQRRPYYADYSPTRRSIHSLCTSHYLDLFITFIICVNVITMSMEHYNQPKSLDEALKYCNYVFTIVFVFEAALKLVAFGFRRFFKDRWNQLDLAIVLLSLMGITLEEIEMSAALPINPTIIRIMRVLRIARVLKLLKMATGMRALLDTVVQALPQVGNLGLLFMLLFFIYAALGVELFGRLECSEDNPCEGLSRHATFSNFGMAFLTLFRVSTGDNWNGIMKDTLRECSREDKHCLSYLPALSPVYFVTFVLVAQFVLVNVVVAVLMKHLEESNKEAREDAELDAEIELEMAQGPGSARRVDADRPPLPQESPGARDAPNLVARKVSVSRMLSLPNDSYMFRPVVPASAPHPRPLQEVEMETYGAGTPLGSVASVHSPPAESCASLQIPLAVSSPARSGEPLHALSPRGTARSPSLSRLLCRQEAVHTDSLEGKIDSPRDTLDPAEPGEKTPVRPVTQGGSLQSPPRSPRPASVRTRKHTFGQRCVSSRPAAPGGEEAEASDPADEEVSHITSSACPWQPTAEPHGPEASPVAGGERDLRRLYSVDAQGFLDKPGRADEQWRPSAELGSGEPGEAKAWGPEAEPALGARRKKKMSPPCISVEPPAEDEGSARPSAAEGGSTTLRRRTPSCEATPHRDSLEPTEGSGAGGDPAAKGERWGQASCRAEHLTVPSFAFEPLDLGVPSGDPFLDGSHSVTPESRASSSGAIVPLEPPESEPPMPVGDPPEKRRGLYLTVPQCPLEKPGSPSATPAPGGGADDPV

| IC50 [µM] | Compound |
| --- | --- |
| 7.7 ± 1.8 | C=C1C2CCC(C2)C1(C)C (centres unmarked) [camphene] |
| 4.5 ± 1.1 | CC(C)=CCC[C@](C)(O)[C@@H]1CC=C(C)CC1 [alpha-bisabolol] |

— publication PMC8591808 (Molecular Brain, 2021)
